# Article PMC3345088 (Journal of Immunology (Baltimore, Md. : 1950), 2012)
# Read-outs that look alike come from different tables or passages of the source.
# Experiments:
# HLA class II alleles = tested on: HLA class II alleles; set-up: species or system human
# [1] = tested on: CD4+ T cells from LTBI donors; experiment: HLA locus restriction, antibody inhibition IFNγ ELISPOT; type: cell-based, human; conditions: antibodies 10 µg/ml against HLA-DR, DP or DQ
# DRB1*01:01 = DRB1*01:01 (Homo sapiens, UniProt P01903+P01911, A100R/D57E/F55L/F60I/F76Y/I96L/L162R/M171V/P40L/Q125E/R42F/V115G/Y59C); experiment: MHC-peptide binding assay
substance,measurement,setting,value
"CFP10 52–66: 15-mer peptide epitope, residues 52–66 of CFP10 (Rv3874)",No. donors expressing allele resp.,HLA class II alleles,4 of 5
same,No. donors expressing allele resp.,HLA class II alleles; listed as CFP10_52–66,4 out of 5
"CFP10 40–54: 15-mer peptide epitope, residues 40–54 of CFP10 (Rv3874) (QGQWRGAAGTAAQAA; UniProt P9WNK5 40-54, looked up, fragment)",Restricting HLA locus,[1]; donor TU7,"DP, DQ, DR"
same,Binding to DRB1*01:01,DRB1*01:01,high affinity
same,Donors that responded expressing DRB1*01:01,HLA class II alleles,3 of 4
"Rv2031c 106–120: 15-mer peptide epitope, residues 106–120 of Rv2031c (hspX) (VGADEDDIKATYDKG; UniProt P9WMK1 106-120, looked up, fragment)",Restricting HLA locus,[1]; donor TU2,"DP, DR"
same,Restricting HLA locus,[1]; donor TU8,"DP, DQ, DR"
same,Restricting HLA locus,[1]; donor TU29,"DP, DR"
"CFP10 72–86: 15-mer peptide epitope, residues 72–86 of CFP10 (Rv3874) (ISTNIRQAGVQYSRA; UniProt P9WNK5 72-86, looked up, fragment)",Restricting HLA locus,[1]; donor TU2,"DP, DQ, DR"
same,Restricting HLA locus,[1]; donor TU11,"DP, DQ, DR"
"ESAT-6 73–87: 15-mer peptide epitope, residues 73–87 of ESAT-6 (Rv3875) (ARTISEAGQAMASTE; UniProt P9WNK7 73-87, looked up, fragment)",No. donors expressing allele resp.,HLA class II alleles,3 of 5
same,No. donors expressing allele resp.,HLA class II alleles; listed as ESAT-6_72–87,3 out of 5
"ESAT-6 3–17: 15-mer peptide epitope, residues 3–17 of ESAT-6 (Rv3875) (EQQWNFAGIEAAASA; UniProt P9WNK7 3-17, looked up, fragment)",Restricting HLA locus,[1]; donor TU25,"DQ, DR"
